Legend:
[1] = test system: DENV-2 strain 16681; assay: Virus yield assay (TCID50); type: cell-based; settings: Dengue virus, DENV2, 96 h post-treatment
[2] = biological target: DENV-2 NS2B-NS3 protease (Dengue virus type 2, UniProt P29990); assay: Trans-cleavage FRET assay with DENV-2 NS2B-NS3 protease; type: cell-based; settings: for inhibition at 10 µM: read-out: Reduction of DENV-2 NS2B-NS3 protease activity
[3] = test system: DENV-2 strain 16681; assay: In vitro infectivity assay (NS4B immunofluorescence/DAPI) in Vero E6 cells; type: cell-based; settings: for EC50: Dengue virus, DENV2, Vero C1008, 96 h, read-out: Inhibition of DENV-2 Infectivity (EC50, μM); for Selectivity Index (CC50/EC50): CC50 Vero E6 / EC50 infectivity
[4] = test system: DENV-2; assay: Time-of-addition/removal assay with DENV-2; type: cell-based; settings: Dengue virus, DENV2; compound applied 2 h after infection, 18 h incubation; read-out: EC50 for viral infectivity, post-entry treatment
[5] = MTT cytotoxicity assay; type: cell-based, African green monkeys; settings: African green monkey, Vero E6 cells
[6] = trans-cleavage FRET assay, cells expressing CFP-trrg-YFP transfected with DENV-2 NS2B-NS3

Chain of DENV-2 NS2B-NS3 protease (P29990 1476-2093): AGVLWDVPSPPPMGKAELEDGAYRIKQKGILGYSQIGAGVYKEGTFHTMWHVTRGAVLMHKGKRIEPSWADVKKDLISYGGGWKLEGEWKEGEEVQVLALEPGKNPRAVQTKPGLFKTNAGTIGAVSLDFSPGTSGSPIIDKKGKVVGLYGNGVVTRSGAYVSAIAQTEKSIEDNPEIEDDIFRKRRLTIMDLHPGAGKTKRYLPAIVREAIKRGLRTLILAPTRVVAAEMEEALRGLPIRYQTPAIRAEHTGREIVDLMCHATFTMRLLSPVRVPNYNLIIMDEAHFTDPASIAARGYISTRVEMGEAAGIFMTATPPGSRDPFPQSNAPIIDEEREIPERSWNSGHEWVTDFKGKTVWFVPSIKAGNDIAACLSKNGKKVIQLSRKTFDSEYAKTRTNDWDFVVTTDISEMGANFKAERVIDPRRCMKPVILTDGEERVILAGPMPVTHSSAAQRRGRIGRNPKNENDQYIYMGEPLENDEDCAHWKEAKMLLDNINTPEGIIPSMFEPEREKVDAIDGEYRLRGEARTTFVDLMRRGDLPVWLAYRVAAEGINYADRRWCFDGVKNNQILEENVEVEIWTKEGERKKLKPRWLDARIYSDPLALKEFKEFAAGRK
Chain of DENV-2 NS2B-NS3 protease (P29990 1346-1475): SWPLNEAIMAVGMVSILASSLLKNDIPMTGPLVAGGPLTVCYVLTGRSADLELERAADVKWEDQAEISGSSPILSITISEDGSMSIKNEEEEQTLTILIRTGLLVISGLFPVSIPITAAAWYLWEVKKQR

| Structure (SMILES) | EC50 [1] | inhibition at 10 µM [2] | EC50 [3] | EC50 [4] | CC50 at 96 h [5] | other results |
| --- | --- | --- | --- | --- | --- | --- |
| COC(=O)CCC(NC(=O)C1OC(OC2C(OC3CCC4(C)C(CCC5(C)C4C(=O)C=C4C6CC(C)(C(=O)O)CCC6(C)CCC45C)C3(C)C)OC(C(=O)NC(CCC(=O)OC)C(=O)OC)C(O)C2O)C(O)C(O)C1O)C(=O)OC (stereo not shown) [Compound 11] | 0.042 µM | > 20% | 0.034 ± 0.001 µM | 0.005 µM | > 100 µM |  |
| COC(=O)CCCCCCCCCCNC(=O)C1OC(OC2C(OC3CCC4(C)C(CCC5(C)C4C(=O)C=C4C6CC(C)(C(=O)O)CCC6(C)CCC45C)C3(C)C)OC(C(=O)NCCCCCCCCCCC(=O)OC)C(O)C2O)C(O)C(O)C1O (stereo not shown) [Compound 20] |  | > 20% |  |  |  | IC50 [2, 6]: > 10 µM |
| CN(C)[C@@H]1C(O)=C(C(N)=O)C(=O)[C@@]2(O)C(O)=C3C(=O)c4c(O)cccc4[C@@](C)(O)[C@H]3C[C@@H]12 [T, tetracycline, reference compound] |  | > 20% |  |  |  |  |
| COC(=O)CCCCCCNC(=O)C1OC(OC2C(OC3CCC4(C)C(CCC5(C)C4C(=O)C=C4C6CC(C)(C(=O)O)CCC6(C)CCC45C)C3(C)C)OC(C(=O)NCCCCCCC(=O)OC)C(O)C2O)C(O)C(O)C1O (stereo not shown) [Compound 19] | 0.43 µM | > 20% | 2.34 ± 0.08 µM | 1.91 µM | > 100 µM | Selectivity Index (CC50/EC50) [3]: >42 |
| CC1(C)[C@@H](O[C@H]2O[C@H](C(=O)O)[C@@H](O)[C@H](O)[C@H]2O[C@@H]2O[C@H](C(=O)O)[C@@H](O)[C@H](O)[C@H]2O)CC[C@]2(C)[C@H]3C(=O)C=C4[C@@H]5C[C@@](C)(C(=O)O)CC[C@]5(C)CC[C@@]4(C)[C@]3(C)CC[C@@H]12 [Compound 1, Glycyrrhizic acid, reference compound] |  |  |  |  |  | NS2B-NS3 Protease (IC50, μM) [2, 6]: no inhibitory effect |
| CCOC(=O)C(Cc1ccccc1)NC(=O)C1OC(OC2C(OC3CCC4(C)C(CCC5(C)C4C(=O)C=C4C6CC(C)(C(=O)NC(Cc7ccccc7)C(=O)OCC)CCC6(C)CCC45C)C3(C)C)OC(C(=O)NC(Cc3ccccc3)C(=O)OCC)C(O)C2O)C(O)C(O)C1O (stereo not shown) [Compound 8] |  | > 20% |  |  |  |  |
| CCOC(=O)CCNC(=O)C1OC(OC2C(OC3CCC4(C)C(CCC5(C)C4C(=O)C=C4C6CC(C)(C(=O)O)CCC6(C)CCC45C)C3(C)C)OC(C(=O)NCCC(=O)OCC)C(O)C2O)C(O)C(O)C1O (stereo not shown) [Compound 17] | 0.79 µM | > 20% | 4.34 ± 0.008 µM | 2.99 µM | > 100 µM | Selectivity Index (CC50/EC50) [3]: >23 |
| CCOC(=O)C(CC(C)C)NC(=O)C1OC(OC2C(OC3CCC4(C)C(CCC5(C)C4C(=O)C=C4C6CC(C)(C(=O)O)CCC6(C)CCC45C)C3(C)C)OC(C(=O)NC(CC(C)C)C(=O)OCC)C(O)C2O)C(O)C(O)C1O (stereo not shown) [Compound 16] |  | > 20% |  |  |  | IC50 [2, 6]: > 10 µM |
| COC(=O)C(CCC(=O)O)NC(=O)C1OC(OC2C(OC3CCC4(C)C(CCC5(C)C4C(=O)C=C4C6CC(C)(C(=O)O)CCC6(C)CCC45C)C3(C)C)OC(C(=O)NC(CCC(=O)O)C(=O)OC)C(O)C2O)C(O)C(O)C1O (stereo not shown) [Compound 12] |  | > 20% |  |  |  |  |

Source: article PMC11680386 (Viruses, 2024)
